Test results taken from patent publication US4098781A, “Polypeptides with morphine-like activity” (American Home Products Corporation, priority 1977, dated 1978).
Peptide text beside a SMILES is read from it.

What was measured:
rats [1] = assay: rat-tail flick method, intracerebroventricular injection; format: in vivo; design: Mean Latency ± SEM Baseline / Mean Latency ± SEM Drug: unit not given here; settings: lateral ventricle; for Mean % Change ± SEM: change in latency (drug minus baseline); for Mean Latency ± SEM Baseline / Mean Latency ± SEM Drug: rat-tail flick; for Mean Latency ± SEM Baseline: baseline before drug
Experimental: In this test method, which is a standard test for analgesia, a light beam is focused on the tip of the rat's tail, and the pain threshold of the animal is measured by the latency of the rat to remove his tail from the noxious heat source. When tested by the rat-tail flick method by intracerebroventricular injection, according to the procedure of Belluzzi et al., Nature, 260, 625 (1976), the polypeptides of this invention produced the effects set forth in Table I.
*All drugs were dissolved in […]. of Ringer's solution and injected int
the lateral ventricle through permanently-indwelling cannulae.

rats [2] = settings: injection in the brain ventricle; cited from earlier work

| Compound | Mean % Change ± SEM (rats [1]; dose 25 μg, 1 rat) | Mean % Change ± SEM (rats [1]; dose 50 μg) | Mean % Change ± SEM (rats [1]; dose 100 μg) | Mean Latency ± SEM Baseline (rats [1]; dose group 25 μg, 1 rat) | Mean Latency ± SEM Baseline (rats [1]; dose group 50 μg) | Mean Latency ± SEM Baseline (rats [1]; dose group 100 μg) | Mean Latency ± SEM Drug (rats [1]; dose 25 μg, 1 rat) | Mean Latency ± SEM Drug (rats [1]; dose 50 μg) | Mean Latency ± SEM Drug (rats [1]; dose 100 μg) | analgesia (rats [2]) | Mean Latency ± SEM Baseline (rats [1]; dose group 10 μg) |
| --- | --- | --- | --- | --- | --- | --- | --- | --- | --- | --- | --- |
| CSCC[C@H](NC(=O)[C@H](Cc1ccccc1)NC(=O)CNC(=O)CNC(=O)[C@H](Cc1ccc(O)cc1)NC(=O)[C@@H](N)CCCNC(=N)N)C(=O)N[C@H](C(=O)N[C@@H](CO)C(=O)O)[C@@H](C)O [L-Arginyl-L-Tyrosyl-Glycyl-Glycyl-L-Phenylalanyl-L-Methionyl-L-Threonyl-L-Serine] (H-RYGGFMTS-OH) | 69.60% | 74.13 ± 15.56% | 55.13 ± 51.71% | 3.54 | 3.55 ± 0.13 | 3.43 ± 0.05 | 6.01 | 6.18 ± 0.55 | 5.29 ± 1.10 |  |  |
| CSCC[C@H](NC(=O)[C@H](Cc1ccccc1)NC(=O)CNC(=O)CNC(=O)[C@@H](N)Cc1ccc(O)cc1)C(=O)O [Methionine-Enkephalin, H-Tyr-Gly-Gly-Phe-Met-OH, reference compound] |  |  |  |  |  | 3.83 ± 0.14 |  |  |  | induce a profound analgesia that is fully reversible by naloxone |  |
| CN1CC[C@]23c4c5ccc(O)c4O[C@H]2[C@@H](O)C=C[C@H]3[C@H]1C5 [Morphine] |  |  |  |  |  |  |  |  |  |  | 3.96 ± 0.42 |
